# Reference: paper PMC12693701, “Glucosinolate-Derived Metabolites from Barbarea vulgaris (Brassicaceae): Evaluation of Antimicrobial, Antioxidant, and Anti-Inflammatory Potentials” (Molecules, 2025)
# Key:
# COX-2 = biological target: T1, COX-2 (Homo sapiens, UniProt P35354); test: COX-2 Inhibitor Screening Kit (Fluorometric); assay type: biochemical; details: for inhibition at 10 µM / inhibition at 100 µM: mean ± SE, read-out: Percentage of COX-2 Inhibition
# T1 construct: purchased Abcam limited, Cambridge, UK
# T1 sequence (P35354 18-604): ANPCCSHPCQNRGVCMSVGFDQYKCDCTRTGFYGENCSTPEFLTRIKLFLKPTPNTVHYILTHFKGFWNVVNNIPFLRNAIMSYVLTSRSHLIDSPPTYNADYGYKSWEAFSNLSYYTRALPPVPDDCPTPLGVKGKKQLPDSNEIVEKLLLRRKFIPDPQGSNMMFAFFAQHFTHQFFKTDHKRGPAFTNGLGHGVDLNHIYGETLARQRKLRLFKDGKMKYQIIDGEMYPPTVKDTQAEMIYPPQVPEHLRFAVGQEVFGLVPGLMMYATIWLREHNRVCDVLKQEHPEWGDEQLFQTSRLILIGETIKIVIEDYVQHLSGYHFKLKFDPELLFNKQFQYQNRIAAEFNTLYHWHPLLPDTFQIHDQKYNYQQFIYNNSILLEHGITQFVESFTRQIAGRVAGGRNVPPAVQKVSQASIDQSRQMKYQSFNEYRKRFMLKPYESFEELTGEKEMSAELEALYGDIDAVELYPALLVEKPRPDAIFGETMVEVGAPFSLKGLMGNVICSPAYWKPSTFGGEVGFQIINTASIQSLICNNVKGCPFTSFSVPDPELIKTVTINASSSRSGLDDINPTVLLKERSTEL
# Description: The COX-2 Inhibitor Screening Kit (Fluorometric) (Abcam limited, Cambridge, UK) is a sensitive assay for screening COX-2 inhibitors by fluorometrically detecting Prostaglandin G2, an intermediate formed by COX enzymatic activity The COX-2 inhibitory activity was evaluated following the manufacturer’s instructions. Tested compounds were prepared as 5 mM DMSO stock solutions, diluted 5-fold with assay buffer, and 10 µL was used per well. Controls included celecoxib (inhibitor control), DMSO (solvent control) and enzyme control. A reaction mix containing COX-2 enzyme, probe, cofactor, and assay buffer was added (80 µL), followed by 10 µL arachidonic acid/NaOH to start the reaction. Fluorescence (Ex/Em = 535/587 nm) was monitored kinetically at 25 °C. All measurements were performed in triplicate.
# tested fungal strains = test: Microdilution MIC, summary over tested fungal strains; assay type: cell-based; details: tested concentrations 5 to 0.039 mg/mL
# Description: The antimicrobial activity was evaluated against 15 microorganisms. This included 11 bacterial strains: four standard strains (Staphylococcus aureus ATCC 25923, Bacillus subtilis ATCC 6633, Bacillus pumilus NCTC 8241, and Escherichia coli ATCC 25922) and six clinical or environmental isolates (Staphylococcus aureus, Escherichia coli, Bacillus cereus, Proteus mirabilis, Salmonella enterica, and Klebsiella pneumoniae). One probiotic strain, Bifidobacterium animalis subsp. lactis was tested. In addition, four fungal strains, Candida albicans ATCC 10231, Trichoderma viride ATCC 13233, Aspergillus flavus ATCC 9170, and Fusarium solani ATCC 11712 were tested. The bacterial strains were kept in glycerol stock at −80 °C and the fungal strains in paraffin oil stock at 4 °C. […]
# Antimicrobial activity was evaluated by determining the minimum inhibitory concentration (MIC) and minimum microbicidal concentration (MMC) using the microdilution plate method with resazurin as an indicator [28]. […]
# Each test also included growth control and sterility control. […] For molds, MIC values of the tested compound were determined as the lowest concentration that inhibited visible mycelia growth. MMC was determined by inoculation of the nutrient agar medium by plating […] of samples from wells, where no indicator color change was recorded. […]
Structure (SMILES),IC50 (COX-2) [µM],inhibition at 10 µM (COX-2) [%],inhibition at 100 µM (COX-2) [%],antifungal activity (in words) (tested fungal strains)
"S=C1NCC(c2ccccc2)O1 (racemic) [Compound 4, rac-5-Phenyl-1,3-oxazolidine-2-thione]",> 100,4.5 ± 1.6,14.2 ± 1,–
"S=C1NC[C@H](c2ccccc2)O1 [Compound 5, (S)-5-phenyl-1,3-oxazolidine-2-thione]",> 100,8.11 ± 1,21.2 ± 1.3,–
"O=C1NCC(c2ccccc2)S1 (stereo not shown) [Compound 6, 5-phenyl-1,3-thiazolidin-2-one]",–,–,–,all fungal strains were resistant
